# Reference: patent US4839466A, “Insulin activity messengers” (The Rockefeller University, priority 1987, dated 1989)
# Legend:
# BC3 Hl cells [1] = test: Insulin-stimulated labeling/hydrolysis of glycolipid (PI-glycan) precursor and water soluble products in BC3 Hl cells; type: cell-based, murine
# Procedure: FIG. 7--SAX HPLC of Radiolabeled Mediators from Insulin Treated Cells. BC3 Hl cells were cultured at 37° C. in Dulbecco's Minimal Essential Medium in the presence of 20% NU serum (Collaborative Research) on collagen coated 10 mm miniwells. Cells (1×10^6 /well) were preincubated with 10 uCi (A) [2,6^3 H]myoinositol or (B) [1,6^3 H]glucosamine (New England Nuclear) for 20 hours in the presence of 20% Nu Serum. Insulin was added to cells in monolayer in serum free media at a final concentration of 10 nM. Reactions were terminated by removal of media and addition of 1 ml chloroform/methanol/1N HCl (200:100:1), followed by addition of 0.5 ml 10 mM formic acid. Organic and aqueous phases were separated by centrifugation at 500 x g for 5 min.
# The water soluble labeled products were purified by a modification of a previously described protocol for purification of cAMP phosphodiesterase (PDE) modulators. The aqueous phases were chromatographed on DEAE-Cellulose, eluted with 0.25 TEA-formate, pH 3.75. This fraction was eluted through a C-18 reversed phase sepak in the same buffer. Following lyophilization, the solution was eluted through Dowex 50WX-4 in 50 mM TEA-formate. pH 3.0. After exposure to activated charcoal, samples were chromatographed on an SAX HLPC column (Whatman), eluted with a linear, 15 minute gradient of 60% methanol (A) to 0.5M TEA-formate, pH 3.75 (B) at 1 ml/minute. One ml fractions were counted. The two peaks of insulin stimulated radioactivity coeluted with similarly purified, myocyte derived PDE modulating activities.
# FIG. 9--Thin Layer Chromatography of the Radiolabeled Precursor from Insulin Treated Cells. (A) [^3 H]inositol and B) [^3 H]glucosaminelabeled cells were treated with or without 10 nM insulin. Following extraction and phase separation, the organic phase were dried under N2, resuspended in chloroform/methanol/H2 O (9:7:2); and spotted on oxalate impregnated Silica gel G plates. These were twice developed in chloroform/acetone/methanol/glacial acetic acid/H2 O (10:4:2:2:1). One cm regions were scraped and radioactivity determined by scintillation counting. Phosphoinositides were identified by iodine staining of standards.
# FIG. 11--Time Course of Precursor Hydrolysis by Insulin. Cells prelabeled with [^3 H]inositol were treated with 10 nM insulin for the designated intervals. Cells were extracted and phase separated as detailed in FIG. 7. Aqueous phases were chromatographed up to and including the SAX HPLC step (upper panel). Results reflect counts from a combination of Peaks I and II. The ratio of counts in these peaks were unchanged over the time course. The precursor residing in the organic phases was identified by the peak on TLC with an Rf =0.22, corresponding to the species depleted by PI-PLC (FIG. 10).
# (§1) Following preincubations with the appropriate isotopes, cells were resuspended in DMEM without serum and treated with 10 nM insulin at the designated intervals. Reactions were terminated by the addition of 1 ml chloroform/methanol/1N HCl (200:100:1), followed by 0.5 ml 10 mM formic acid. Following centrifugation at 500 x g for 5 min., the upper phase was discarded. For phospholipid analyses, the lower, organic phase was dried under N2, resuspended in chloroform/methanol/H2 O (9:7:2) and spotted on oxalate impregnated silica gel G plates. These were sequentially developed in chloroform/acetone/methanol/glacial acidic acid/H2 O (10:4:2:2:1) and chloroform/methanol/4N NH4 OH (45:35:10). One cm regions were scraped and eluted with chloroform/methanol (2:1) and counted. Phosphoinositide standards were identified by iodine staining.
# BC3 Hl cells [2] = test: Diacylglycerol and phosphatidic acid production in labeled BC3 Hl myocytes; type: cell-based, murine
# Procedure: FIG. 12--Time Course of Diacylglycerol and Phosphatidic Acid Production in Response to Insulin. Myocytes were incubated for 20 hrs. in serum free DMEM with [9,10^3 H]myristic acid (New England Nuclear), complexed 1:1 to bovine serum albumin. Insulin was added to cells in fresh media for the designated intervals, and reactions were stopped by removal of media and addition of 1 ml chloroform/methanol/1N HCl (200:100:1). 0.6ml H2 O was added and upper aqueous phases were discarded following centrifugation at 500×g for 5 minutes. The lower, organic phases were dried under N2 and resuspended in 1 ml diethyl ether followed by addition of 1 […]. The upper ether phase was aspirated and the lower phase reextracted with 1 ml diethyl ether. The combined ether phases, containing diacylglycerol, were dried under N2, resuspended in chloroform and spotted on silica gel G plates which were preactivated at 60° C. for 1 hr. Plates were twice developed in petroleum ether/diethyl ether/glacial acetic acid (70:30:2). Five ug of unlabeled dimyristoylglycerol were added to each sample. Spots were visualized by iodine staining. To the lower aqueous phases from the ether extraction were added 1 ml of chloroform/methanol (2:1). Following centrifugation, the resulting upper aqueous phases were discarded and the lower organic phases dried under N2, resuspended in chloroform/methanol/H2 O (9:7:2) and spotted on "soft plus" silica gel plates. These were developed in chloroform/pyridine/70% formic acid (50:30:7), and phosphatidic acid was identified by an iodine stained standard. Lipids were scraped and radioactivity determined in a liquid scintillation counter.
# BC3 Hl cells were cultured on collagen coated multiwell plates or petri dishes in Dulbecco's minimal essential medium (DMEM) supplemented with 20% Nu serum or 10% fetal calf serum. Cells were grown to maximal density and confluence, at which time they become responsive to insulin. Radiolabeled precursors were added for 20 hrs. in serum-free medium. [^3 H]Myristic and arachidonic acids were complexed 1:1 to bovine serum albumin prior to addition.
# as §1
# For analysis of neutral lipids, the chloroform/methanol organic phases were dried under N2 and resuspended in 1 ml diethyl ether followed by addition of 1 ml 50 mM formic acid. The upper ether phase was aspirated and the lower aqueous phase was reextracted with 1 ml diethyl ether. The pooled ether phases were dried under N2, resuspended in chloroform and spotted on silica gel G plates which were preactiviated at 60° C. for 1 hr. Plates were twice developed in petroleum ether/diethyl ether/glacial acetic acid (70:30:2). Five ug of unlabeled dimyristoyl glycerol, myristic acid and monomyristoyl glycerol were added as carriers to each sample.
substance,measurement,setting,value
Insulin: monocomponent bovine insulin,"production of [3H]inositol containing products (Peaks I and II combined), share of the maximal effect","BC3 Hl cells [1]; 10 nM insulin, after 30 sec",Seventy
same,increase of [3H]inositol radioactivity in the precursor over control levels,"BC3 Hl cells [1]; 10 nM insulin, after the initial decrease",60%
same,decrease in [3H]inositol counts in the precursor,"BC3 Hl cells [1]; 10 nM insulin, at 30 sec",20%
same,decrease in [3H]inositol labeling of the PI-glycan,"BC3 Hl cells [1]; Example IV, after 30 seconds of insulin exposure",20%
same,decrease in [3H]myristate labeling of the PI-glycan,"BC3 Hl cells [1]; Example IV, by 1 min. of insulin",60%
same,gradual increase in [3H]inositol counts of the PI-glycan,"BC3 Hl cells [1]; Example IV, following the initial decrease",40%
same,time until [3H]myristate labeling of the PI-glycan returned to basal levels,"BC3 Hl cells [1]; Example IV, insulin",20 to 30 min
same,increase of [3H]glucosamine incorporation in the precursor glycolipid peak,"BC3 Hl cells [1]; insulin 10 nM for 10 min., TLC",approximately 40%
same,increase of [3H]inositol incorporation in the precursor glycolipid peak,"BC3 Hl cells [1]; insulin 10 nM for 10 min., TLC",approximately 40%
same,generation of [3H]stearyl diacylglycerol,BC3 Hl cells [2],no detectable effect
same,change in [3H]myristoyl diacylglycerol,BC3 Hl cells [2]; [3H]myristate labeled cells,rapid increase
same,time of maximal increase in labeled diacylglycerol,BC3 Hl cells [2]; [3H]myristate labeled cells,1 min
same,change in [3H]arachidonyl diacylglycerol,BC3 Hl cells [2]; cells incubated with [3H]arachidonic acid,slow increase
same,increase in levels of [3H]myristate phosphatidic acid,"BC3 Hl cells [2]; insulin, achieved by 5 minutes",2 fold
same,maximal increase of labeled diacylglycerol over basal,"BC3 Hl cells [2]; insulin, by 5-10 minutes",50%
same,increase in [3H]myristate diacylglycerol,"BC3 Hl cells [2]; insulin, within 1 minute",40%
